# Tested on: adult fleas (Ctenocephalides felis)
# Test: In vitro contact test with fleas (coated test tubes)
# Settings: B-11 alone
# Description: According to S. R. Colby, Weeds 15 (1967), 20-22, the expected action for a given combination of two active compounds can be calculated as follows: if • X is the kill rate, expressed in % of the untreated control, when employing active compound A at an application rate of m g/ha or in a concentration of m ppm, • Y is the kill rate, expressed in % of the untreated control, when employing active compound B at an application rate of n g/ha or in a concentration of n ppm and • E is the kill rate, expressed in % of the untreated control, when employing active compounds A and B at application rates of m and n g/ha or in a concentration of m and n ppm, • then
# In this case, the actually observed kill rate must exceed the value calculated using the above formula for the expected kill rate (E).
# In vitro contact tests with ticks and fleas
# From Table 1, representatives of important classes of active compounds (component B) were now tested in combination with pyrazine derivatives of the formula (I) according to the invention as component A against arachnids and insects. To this end, roll-necked test tubes were coated with a solution of active compound A or B or a combination of the two in acetone (2 h of swing rotation at 30 rpm in a fume cupboard). […]
substance,measurement,value
demiditraz [B-11],insecticidal activity in the contact test method,no insecticidal activity

# Reference: patent publication US9066945B2, “Ectoparasiticidal active substance combinations” (Bayer Intellectual Property GmbH, priority 2010, dated 2015)
